Experiments:
Experiment in all cases: relative viability (nuclei count vs DMSO), 5 days (fraction); higher = more cells survive
[1] = compound: CC1=CC(=NN1)NC2=CC(=NC(=N2)/C=C/C3=CC=CC=C3)N4CCN(CC4)C + Cc1nc(NC(=O)N2CCC[C@H]2C(N)=O)sc1-c1ccnc(C(C)(C)C(F)(F)F)c1 [Alpelisib] (partner 2 µM)
Summary of the method: (§1)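 Five library-drug doses in √10 steps were combined with a fixed anchor-drug dose, or a single drug was given alone, by pin tool to lung cancer cell lines in 1536-well plates the day after seeding. Nuclei were stained and counted after 5 days. Relative viability is the nuclei count in treated wells over that in vehicle wells, taken as the median of duplicate plates.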

Obatoclax + Pictilisib = compound: COC1=CC(c2cc3ccccc3[nH]2)=N/C1=C\c1[nH]c(C)cc1C [Obatoclax] + CS(=O)(=O)N1CCN(Cc2cc3nc(-c4cccc5[nH]ncc45)nc(N4CCOCC4)c3s2)CC1 [Pictilisib] (partner 1 µM)
Summary of the method: as §1

Obatoclax + Vorinostat = compound: COC1=CC(c2cc3ccccc3[nH]2)=N/C1=C\c1[nH]c(C)cc1C [Obatoclax] + O=C(CCCCCCC(=O)Nc1ccccc1)NO [Vorinostat] (partner 1 µM)
Summary of the method: as §1

Obatoclax + OSI-027 = compound: COC1=CC(c2cc3ccccc3[nH]2)=N/C1=C\c1[nH]c(C)cc1C [Obatoclax] + COc1cccc2cc(-c3nc([C@H]4CC[C@H](C(=O)O)CC4)n4ncnc(N)c34)[nH]c12 [OSI-027] (partner 0.5 µM)
Summary of the method: as §1

Cell Line	relative viability ([1]; first compound 0.08 µM)	relative viability ([1]; first compound 0.253 µM)	relative viability ([1]; first compound 0.8 µM)	relative viability ([1]; first compound 2.53 µM)	relative viability ([1]; first compound 8 µM)	relative viability (Obatoclax + Pictilisib; first compound 0.01 µM)	relative viability (Obatoclax + Pictilisib; first compound 0.03162 µM)	relative viability (Obatoclax + Pictilisib; first compound 0.1 µM)	relative viability (Obatoclax + Pictilisib; first compound 0.3162 µM)	relative viability (Obatoclax + Pictilisib; first compound 1 µM)	relative viability (Obatoclax + Vorinostat; first compound 0.01 µM)	relative viability (Obatoclax + Vorinostat; first compound 0.03162 µM)	relative viability (Obatoclax + Vorinostat; first compound 0.1 µM)	relative viability (Obatoclax + Vorinostat; first compound 0.3162 µM)	relative viability (Obatoclax + Vorinostat; first compound 1 µM)	relative viability (Obatoclax + OSI-027; first compound 0.01 µM)	relative viability (Obatoclax + OSI-027; first compound 0.03162 µM)	relative viability (Obatoclax + OSI-027; first compound 0.1 µM)	relative viability (Obatoclax + OSI-027; first compound 0.3162 µM)	relative viability (Obatoclax + OSI-027; first compound 1 µM)
LXF-289	1.07	1.06	0.919	0.199	0.0577	0.778	0.773	0.751	0.72	0.694	0.714	0.725	0.798	0.775	0.601	0.78	0.77	0.68	0.765	0.691
NCI-H23	0.55	0.859	0.704	0.265	0.12	0.43	0.442	0.57	0.4	0.197	0.593	0.755	0.569	0.653	0.316	0.632	0.62	0.626	0.503	0.243
NCI-H322M	0.716	0.792	0.757	0.436	0.204	0.545	0.484	0.665	0.467	0.5	0.845	0.799	1.2	0.966	0.945	0.531	0.338		0.462	0.386
NCI-H358	0.934	0.821	0.539	0.142	0.153	0.322	0.297	0.261	0.288	0.23	0.661	0.73	0.595	0.183	0.141	0.736	0.871	0.903	0.379	0.199
NCI-H441	0.632	0.578	0.484	0.157	0.121	0.442	0.451	0.412	0.338	0.348	0.768	0.837	0.728	0.733	0.645	0.772	0.502	0.704	0.354	0.271
NCI-H460	0.388	0.581	0.183	0.0086	0.0052	0.401	0.294	0.136	0.344	0.329	0.706	0.717	0.692	0.103	0.0463	0.697	0.703	0.635	0.0709	0.0443
NCI-H520	0.891	0.937	0.892	0.498	0.166	0.3	0.336	0.318	0.268	0.245	0.685	0.712	0.764	0.542	0.315	0.256	0.284	0.406	0.251	0.243
NCI-H596	0.5	0.577	0.565	0.367	0.121	0.416	0.357	0.365	0.359	0.296	0.555	0.467	0.543	0.585	0.296	0.837	0.602	0.65	0.504	0.425
NCI-H647	0.927	1.11	0.782	0.05	0.0332	0.469	0.393	0.118	0.33	0.153	0.667	0.523	0.652	0.304	0.161	0.606	0.692	0.585	0.346	0.184
NCI-H661	0.578	0.749	0.94	0.455	0.197	0.392	0.363	0.33		0.451	0.734	0.789	0.81	0.711	0.552	0.689	0.704	0.709	0.649	0.407
NCI-H727	0.586	0.54	0.529	0.377	0.167	0.33	0.456	0.701	0.339	0.253	1.18	1.14	1.29	1.05	1.3	0.776	0.554	0.857	0.61	0.453
NCI-H838	1.02	1.13	0.884	0.749	0.139	0.52	0.508	0.421	0.35	0.247	0.687	0.7	0.736	0.678	0.36	0.498	0.367	0.46	0.385	0.284
NCI-H1355	0.863	0.859	0.683	0.605	0.192	0.405	0.412	0.406	0.384	0.327	0.623	0.625	0.627	0.601	0.623	0.391	0.386	0.462	0.422	0.399
NCI-H1395	1	1.07	1.03	0.602	0.289	0.815	0.488	0.485	0.811	0.519	0.996	0.643	0.642	0.635	0.596	0.659	0.539	0.473	0.557	0.465
NCI-H1437	1.02	1.01	0.881	0.972	0.285	0.374	0.436	0.495	0.452	0.378	0.834	0.808	0.791	0.696	0.589	0.868	0.889	0.835	0.859	0.752
NCI-H1651	0.816	0.919	1.15	0.558	0.146	0.58	0.567	0.634	0.256	0.188	0.587	0.491	0.512	0.384	0.595	0.628	0.712	0.804	0.428	0.252
